{"source": "patent US20250161273A1", "about": "“PHARMACEUTICAL COMPOSITION COMPRISING DIPHENYLDIAZOLE DERIVATIVES AND METHODS OF USE” (MODAG GMBH, priority 2022, published 2025)", "key": {"[1]": {"test": "phase 1 first-in-human trial, single ascending dose (SAD) PK", "format": "in vivo", "conditions": "for fold increase in AUC / fold increase in Cmax: SAD; for Tmax / AUC(0-t) / Cmax / half-life: human, plasma; for Cmax: read-out: Cmax (geometric mean); for half-life: read-out: T1/2 (geometric mean) (converted)", "procedure": "Anle138b was studied in a single-centre, double-blind, randomised, placebo-controlled single ascending dose (SAD) and multiple ascending dose (MAD) study in healthy subjects. Eligible participants were randomly assigned (1:1 for sentinel subjects and 1:5 for main group) to placebo or anle138b (dose ranging from 50 mg to 300 mg per day), respectively. In addition, the effect of food on the pharmacokinetics (PK) of anle138b in healthy subjects was examined at doses of 150 mg per day (FES, food effect study). Participants were randomized to treatment sequence (fed→fasted) or (fasted→fed). Treatment for the SAD, MAD and FES arms of the study was administered orally in hard gelatin capsules containing either 10 mg or 30 mg of anle138b with excipient (i.e., lauroyl polyoxyl-32 glycerides) or excipient only. The primary endpoints were safety and tolerability, the secondary endpoint was pharmacokinetics. Data from all randomized individuals were evaluated. [Clinicaltrials.gov-identifier: NCT04208152. EudraCT-number: 2019-004218-33]\nStudy design: A single-centre, double-blind, randomised, placebo-controlled single ascending dose (SAD) and multiple ascending dose (MAD) study of anle138b in doses of up to 300 mg per day in healthy subjects. The effect of food (FES) on the PK of anle138b in healthy subjects was examined using doses of 150 mg. Participants were recruited from Quotient Sciences (the “CRO”, Nottingham, UK) volunteer database. Approvals from the ethical review board and from the Medicines and Healthcare products Regulatory Agency (UK) were obtained. This study was conducted in accordance with the protocol and with the following legislation: The updated version of the international Council for Harmonisation Good Clinical Practice (GCP) including the integrated Addendum E6, the Medicines for Human Use (Clinical Trials) Regulations including amendments No. 1928, 2984 and 941. In addition, the study was performed according to the ethical principles outlined in the World Medical Association Declaration of Helsinki and its amendments. The study data was monitored. An independent study monitor was appointed to verify that the study was conducted in accordance with current GCP, regulatory requirements, the protocol and that the data were authentic, accurate and complete.\nIn SAD, subjects received a single dose of anle138b or placebo after fasting from all food and drink (except water) for a minimum of 8 h prior to dosing. The dosing in the four SAD-cohorts were 50 mg, 100 mg, 200 mg and 300 mg of free anle138b equivalent, QD, cohorts A, B, C and D respectively. In the MAD part, participants received anle138b or placebo once daily (QD) for 7 days after fasting from all food and drink (except water) for a minimum of 8 h prior to dosing. The dosing in the three MAD-cohorts was 100 mg, 200 mg and 300 mg of free anle138b equivalent, cohorts AM, BM and CM, respectively. Post dosing mouth and hand checks were conducted to ensure the capsules were swallowed. In-study decisions were made by the safety advisory committee (SAC) comprising the principal investigator, the sponsor's medical monitor and a PK expert. For dose escalation to proceed, data needed to be available from a minimum of 6 subjects per cohort with completed per protocol safety and PK assessments up to 48 h after dosing to ensure at least 4 subjects had received active IMP. The decision to proceed to the next higher dose level was based on safety, tolerability and available PK data to 48 h post-administration. The following data were analyzed: Adverse events, vital signs, safety laboratory, ECG, physical examinations, plasma concentrations of anle138b with interim PK parameter estimations (Tmax, Cmax, AUC0-24, AUC0-tau, AUC0-last and T½, where applicable). Data were provided to the SAC in accordance with CRO standard operating procedure (SOP) on interim dose decision-making and dose escalation. […]"}, "[2]": {"test": "28-day toxicity study in rats", "format": "in vivo", "source_text": "Safe starting dose & exposure limit justification: This trial followed the recommendations of the EMA (European Medicines Agency) (EMEA/CHMP/SWP/28367/07 Rev. 1; 20 Jul. 2017) and the FDA (Food and Drug Administration) (Guidance for Industry: Estimating the Maximum Safe Starting Dose in Initial Clinical Trials for Therapeutics in Adult Healthy Volunteers. U.S. Department of Health and Human Services Food and Drug Administration Center for Drug Evaluation and Research (CDER) July 2005) for dose finding in a first-in-human study. The safe starting dose was set based on toxicity studies in animals. In a 28-day toxicity study in rats, the no-observed-adverse-effect-level (NOAEL) was determined to be 50 mg/kg/day (human equivalent dose of 8.1 mg/kg). The dose range of the current trial was designed to start at 50 mg. Escalation between doses was planned to be flexible depending on emerging results but not to exceed an increment of 2-fold."}, "[3]": {"conditions": "1.5-fold increase in dose from 200 mg to 300 mg"}, "[4]": {"conditions": "2-fold increase in dose from 50 mg to 100 mg"}, "[5]": {"conditions": "2-fold increase in dose from 100 mg to 200 mg"}, "[6]": {"conditions": "po, 50 mg, healthy volunteers, fasted, single oral 50 mg"}, "[7]": {"conditions": "po, 100 mg, healthy volunteers, fasted, single oral 100 mg"}, "[8]": {"conditions": "po, 200 mg, healthy volunteers, fasted, single oral 200 mg"}, "[9]": {"conditions": "po, 300 mg, healthy volunteers, fasted, single oral 300 mg"}}, "note": "Read-outs that look alike come from different tables or passages of the source.", "data": [{"smiles": "Brc1cccc(-c2cc(-c3ccc4c(c3)OCO4)n[nH]2)c1", "note": "[anle138b, 3-(1,3-benzodioxol-5-yl)-5-(3-bromophenyl)-1H-pyrazole]", "values": [{"measurement": "fold increase in AUC", "setting": "[1]; [3]", "value": "~1.5", "unit": "fold"}, {"measurement": "fold increase in Cmax", "setting": "[1]; [3]", "value": "~1.5", "unit": "fold"}, {"measurement": "fold increase in AUC", "setting": "[1]; [4]", "value": "~3.3", "unit": "fold"}, {"measurement": "fold increase in Cmax", "setting": "[1]; [4]", "value": "~2.9", "unit": "fold"}, {"measurement": "fold increase in AUC", "setting": "[1]; [5]", "value": "~3.0", "unit": "fold"}, {"measurement": "fold increase in Cmax", "setting": "[1]; [5]", "value": "~2.9", "unit": "fold"}, {"measurement": "practical terminal elimination half-time", "setting": "[1]; healthy volunteers, overall", "value": "~12", "unit": "h"}, {"measurement": "Tmax", "setting": "[1]; oral, healthy volunteers, single dose 50-300 mg, post-administration, read-out: median Tmax, all SAD cohorts", "value": "1 to 1.5", "unit": "h"}, {"measurement": "Tmax", "setting": "[1]; po, 50 mg, healthy volunteers, fasted, single oral 50 mg (Cohort A), read-out: Tmax (median)", "value": 1, "unit": "h"}, {"measurement": "Tmax", "setting": "[1]; po, 50 mg, healthy volunteers, fasted, single oral 50 mg (Cohort A), read-out: Tmax (range)", "value": "0.5 to 2", "unit": "h"}, {"measurement": "AUC(0-t)", "setting": "[1]; po, 50 mg, healthy volunteers, fasted, single oral 50 mg, read-out: AUC(0-24) (geometric mean)", "value": "~113", "unit": "ng·h/mL"}, {"measurement": "AUC(0-t)", "setting": "[1]; po, 50 mg, healthy volunteers, fasted, single oral 50 mg, read-out: AUC(0-last) (geometric mean)", "value": 109, "unit": "ng·h/mL"}, {"measurement": "Cmax", "setting": "[1]; [6]", "value": "~54.3", "unit": "ng/mL"}, {"measurement": "half-life", "setting": "[1]; [6]", "value": 3.9, "unit": "h"}, {"measurement": "Tmax", "setting": "[1]; po, 100 mg, healthy volunteers, fasted, single oral 100 mg (Cohort B), read-out: Tmax (median)", "value": 1.5, "unit": "h"}, {"measurement": "Tmax", "setting": "[1]; po, 100 mg, healthy volunteers, fasted, single oral 100 mg (Cohort B), read-out: Tmax (range)", "value": "0.5 to 2", "unit": "h"}, {"measurement": "AUC(0-t)", "setting": "[1]; po, 100 mg, healthy volunteers, fasted, single oral 100 mg, read-out: AUC(0-24) (geometric mean)", "value": "> 300", "unit": "ng·h/mL"}, {"measurement": "AUC(0-t)", "setting": "[1]; po, 100 mg, healthy volunteers, fasted, single oral 100 mg, read-out: AUC(0-last) (geometric mean)", "value": 372, "unit": "ng·h/mL"}, {"measurement": "Cmax", "setting": "[1]; [7]", "value": "~156", "unit": "ng/mL"}, {"measurement": "half-life", "setting": "[1]; [7]", "value": 10.8, "unit": "h"}, {"measurement": "Tmax", "setting": "[1]; po, 200 mg, healthy volunteers, fasted, single oral 200 mg (Cohort C), read-out: Tmax (median)", "value": 1.5, "unit": "h"}, {"measurement": "Tmax", "setting": "[1]; po, 200 mg, healthy volunteers, fasted, single oral 200 mg (Cohort C), read-out: Tmax (range)", "value": "1 to 2", "unit": "h"}, {"measurement": "AUC(0-t)", "setting": "[1]; po, 200 mg, healthy volunteers, fasted, single oral 200 mg, read-out: AUC(0-24) (geometric mean)", "value": "~1090", "unit": "ng·h/mL"}, {"measurement": "AUC(0-t)", "setting": "[1]; po, 200 mg, healthy volunteers, fasted, single oral 200 mg, read-out: AUC(0-last) (geometric mean)", "value": 1130, "unit": "ng·h/mL"}, {"measurement": "Cmax", "setting": "[1]; [8]", "value": "~458", "unit": "ng/mL"}, {"measurement": "half-life", "setting": "[1]; [8]", "value": 12.8, "unit": "h"}, {"measurement": "Tmax", "setting": "[1]; po, 300 mg, healthy volunteers, fasted, single oral 300 mg (Cohort D), read-out: Tmax (median)", "value": 1.5, "unit": "h"}, {"measurement": "Tmax", "setting": "[1]; po, 300 mg, healthy volunteers, fasted, single oral 300 mg (Cohort D), read-out: Tmax (range)", "value": "1.5 to 2", "unit": "h"}, {"measurement": "AUC(0-t)", "setting": "[1]; po, 300 mg, healthy volunteers, fasted, single oral 300 mg, read-out: AUC(0-24) (geometric mean)", "value": "~1650", "unit": "ng·h/mL"}, {"measurement": "AUC(0-t)", "setting": "[1]; po, 300 mg, healthy volunteers, fasted, single oral 300 mg, read-out: AUC(0-last) (geometric mean)", "value": 1720, "unit": "ng·h/mL"}, {"measurement": "Cmax", "setting": "[1]; [9]", "value": "~704", "unit": "ng/mL"}, {"measurement": "half-life", "setting": "[1]; [9]", "value": 16.2, "unit": "h"}, {"measurement": "no-observed-adverse-effect-level (NOAEL)", "setting": "[2]; 28-day toxicity study in rats", "value": 50, "unit": "mg/kg/day"}, {"measurement": "NOAEL at 28 days", "setting": "[2]; rat, in vivo", "value": 8.1, "unit": "mg/kg"}]}]}
